Key:
VSV = format: cell-based, vesicular stomatitis virus
HIV = details: among prostitutes; Kreiss et al., JAMA 1992; cited from earlier work
[1] = system: vesicular stomatitis virus (VSV); format: cell-based

| Compound | concentrations at which toxicity activity was absent (L-929 cells; mouse) | killing of L-929 cells (toxicity titer) (L-929 cells; mouse) | inhibition of VSV (VSV) | L-929 toxicity titer (L-929 cells; mouse) | concentrations at which inhibitory activity was absent (VSV) | killing of L-929 cells (L-929 cells) | risk of HIV infection with use (HIV) | inhibition of multiplication of VSV [1] |
| --- | --- | --- | --- | --- | --- | --- | --- | --- |
| COC(=O)c1ccc(O)cc1 [Methylparaben] | < 0.2% | greater than 300 fold | approximately 30 fold |  |  |  |  |  |
| CCCOC(=O)c1ccc(O)cc1 [Proplyparaben, propylparaben] | < 0.004% |  | approximately 55 fold | approximately 15 fold | < 0.004% |  |  |  |
| CC(O)CO (centres unmarked) [Propylene G, propylene glycol] |  |  | almost no inhibition |  |  | almost no inhibition or killing at all |  |  |
| OCC(O)CO [glycerol] | below 8% |  | greater than 10 fold |  | below 8% |  |  |  |
| Nonoxynol-9 [Nonoxynol-9®] |  |  |  |  |  |  | increased risk of HIV infection | almost identical degree of inhibition |

Reference: patent publication US6949255B2, “Inhibitory chemical formulation with preservative system” (priority 2000, dated 2005)
